Converted amounts (≈) assume the structure as drawn. The source made the active and inactive calls. The calls are words filed in the database; no cut-off is given here.
What was measured:
Candida albicans = experiment: Antifungal activity against Candida albicans by microdilution test; format: functional
Candida parapsilosis = experiment: Antifungal activity against Candida parapsilosis by microdilution test; format: functional; details: for MIC: Lodderomyces parapsilosis
Nakaseomyces glabratus = experiment: Antifungal activity against Candida glabrata by microdilution test; format: functional
Pichia kudriavzevii = experiment: Antifungal activity against Candida krusei by microdilution test; format: functional
[1] = tested on: Meyerozyma guilliermondii; experiment: Antifungal activity against Candida guilliermondii by microdilution test; format: functional
Cryptococcus neoformans = experiment: Antifungal activity against Cryptococcus neoformans by microdilution test; format: functional
[2] = Antifungal activity against Aspergillus fumigates by microdilution test; format: functional
Aspergillus flavus = experiment: Antifungal activity against Aspergillus flavus by microdilution test; format: functional
Aspergillus niger = experiment: Antifungal activity against Aspergillus niger by microdilution test; format: functional
Aspergillus terreus = experiment: Antifungal activity against Aspergillus terreus by microdilution test; format: functional
[3] = Antifungal activity against Cladophialophora carrionii by microdilution test; format: functional
Exophiala spinifera = experiment: Antifungal activity against Exophiala spinifera by microdilution test; format: functional
[4] = Antifungal activity against Exophiala oligosperma by microdilution test; format: functional
[5] = Antifungal activity against Exophiala xenobiotica by microdilution test; format: functional
Aspergillus nidulans = experiment: Antifungal activity against Aspergillus nidulans by microdilution test; format: functional, organism-based

SMILES | MIC (Candida albicans) | MIC (Candida parapsilosis) | MIC (Nakaseomyces glabratus) | MIC (Pichia kudriavzevii) | MIC [1] | MIC (Cryptococcus neoformans) | MIC [2] | MIC (Aspergillus flavus) | MIC (Aspergillus niger) | MIC (Aspergillus terreus) | MIC (Exophiala spinifera) | MIC [5] | Activity (Candida albicans) | Activity (Candida parapsilosis) | Activity (Nakaseomyces glabratus) | Activity (Pichia kudriavzevii) | Activity [1] | Activity (Cryptococcus neoformans) | Activity [2] | Activity (Aspergillus flavus) | further results
CN(C/C=C/C#CC(C)(C)C)Cc1cccc2ccccc12 [TERBINAFINE] | 0.5 µg/mL (≈ 1.72 µM) | 0.06 µg/mL (≈ 0.206 µM) | 0.06 µg/mL (≈ 0.206 µM) | 0.06 µg/mL (≈ 0.206 µM) | 0.5 µg/mL (≈ 1.72 µM) | 0.25 µg/mL (≈ 0.858 µM) | 0.25 µg/mL (≈ 0.858 µM) | 0.25 µg/mL (≈ 0.858 µM) | 0.125 µg/mL (≈ 0.429 µM) | 0.06 µg/mL (≈ 0.206 µM) | 0.06 µg/mL (≈ 0.206 µM) | 0.06 µg/mL (≈ 0.206 µM) | – | – | – | – | – | – | – | – | MIC [3]: 0.25 µg/mL (≈ 0.858 µM); MIC [4]: 0.06 µg/mL (≈ 0.206 µM)
CN(C)S(=O)(=O)c1ccc2c(c1)N(C(=O)CCl)c1ccccc1S2 | – | – | – | – | – | – | – | – | – | – | – | – | inactive | inactive | inactive | inactive | inactive | inactive | inactive | inactive | Activity (Aspergillus niger): inactive; Activity (Aspergillus nidulans): inactive; Activity (Aspergillus terreus): inactive; Activity [3]: inactive; Activity (Exophiala spinifera): inactive; Activity [4]: inactive; Activity [5]: inactive
CN(C)S(=O)(=O)c1ccc2c(c1)N(C(=O)CCCl)c1ccccc1S2 | – | – | – | – | – | – | – | – | – | – | – | – | inactive | inactive | inactive | inactive | inactive | inactive | inactive | inactive | Activity (Aspergillus niger): inactive; Activity (Aspergillus nidulans): inactive; Activity (Aspergillus terreus): inactive; Activity [3]: inactive; Activity (Exophiala spinifera): inactive; Activity [4]: inactive; Activity [5]: inactive
C[C@@H]1[C@H](O)[C@@H](C)/C=C/C=C/C=C/C=C/C=C/C=C/C=C/[C@H](O[C@@H]2O[C@H](C)[C@@H](O)[C@H](N)[C@@H]2O)C[C@@H]2O[C@](O)(C[C@@H](O)C[C@@H](O)[C@H](O)CC[C@@H](O)C[C@@H](O)CC(=O)O[C@H]1C)C[C@H](O)[C@H]2C(=O)O [AMPHOTERICIN B] | 0.5 µg/mL (≈ 0.541 µM) | 0.5 µg/mL (≈ 0.541 µM) | 0.25 µg/mL (≈ 0.271 µM) | 0.25 µg/mL (≈ 0.271 µM) | 1 µg/mL (≈ 1.08 µM) | – | 0.5 µg/mL (≈ 0.541 µM) | 0.25 µg/mL (≈ 0.271 µM) | 0.5 µg/mL (≈ 0.541 µM) | 2 µg/mL (≈ 2.16 µM) | 1 µg/mL (≈ 1.08 µM) | 1 µg/mL (≈ 1.08 µM) | – | – | – | – | – | – | – | – | –
CN(C)S(=O)(=O)c1ccc2c(c1)N(CCCN1CCC(CCO)CC1)c1ccccc1S2 [PIPOTIAZINE] | 256 µg/mL (≈ 538 µM) | 256 µg/mL (≈ 538 µM) | 256 µg/mL (≈ 538 µM) | 512 µg/mL (≈ 1080 µM) | 256 µg/mL (≈ 538 µM) | 256 µg/mL (≈ 538 µM) | > 512 µg/mL | > 512 µg/mL | > 512 µg/mL | > 512 µg/mL | 256 µg/mL (≈ 538 µM) | 512 µg/mL (≈ 1080 µM) | – | – | – | – | – | – | – | – | MIC [3]: 256 µg/mL (≈ 538 µM); MIC [4]: 512 µg/mL (≈ 1080 µM)
O=C(CCl)N1c2ccccc2Oc2ccccc21 | – | – | – | – | – | – | – | – | – | – | – | – | inactive | inactive | inactive | inactive | inactive | inactive | inactive | inactive | Activity (Aspergillus niger): inactive; Activity (Aspergillus nidulans): inactive; Activity (Aspergillus terreus): inactive; Activity [3]: inactive; Activity (Exophiala spinifera): inactive; Activity [4]: inactive; Activity [5]: inactive
Nc1nc(=O)[nH]cc1F [FLUCYTOSINE] | 2 µg/mL (≈ 15.5 µM) | 0.5 µg/mL (≈ 3.87 µM) | 1 µg/mL (≈ 7.75 µM) | 0.5 µg/mL (≈ 3.87 µM) | 1 µg/mL (≈ 7.75 µM) | 0.5 µg/mL (≈ 3.87 µM) | 0.5 µg/mL (≈ 3.87 µM) | 1 µg/mL (≈ 7.75 µM) | 0.5 µg/mL (≈ 3.87 µM) | 1 µg/mL (≈ 7.75 µM) | 2 µg/mL (≈ 15.5 µM) | 8 µg/mL (≈ 62 µM) | – | – | – | – | – | – | – | – | MIC [3]: 1 µg/mL (≈ 7.75 µM); MIC [4]: 4 µg/mL (≈ 31 µM)
O=C(CCCl)N1c2ccccc2Sc2ccccc21 | – | – | – | – | – | – | – | – | – | – | – | – | inactive | inactive | inactive | inactive | inactive | inactive | inactive | inactive | Activity (Aspergillus niger): inactive; Activity (Aspergillus nidulans): inactive; Activity (Aspergillus terreus): inactive; Activity [3]: inactive; Activity (Exophiala spinifera): inactive; Activity [4]: inactive; Activity [5]: inactive
O=C(CCl)Nc1ccccc1Sc1ccccc1 | – | – | – | – | – | – | – | – | – | – | – | – | inactive | inactive | inactive | inactive | inactive | inactive | inactive | inactive | Activity (Aspergillus niger): inactive; Activity (Aspergillus nidulans): inactive; Activity (Aspergillus terreus): inactive; Activity [3]: inactive; Activity (Exophiala spinifera): inactive; Activity [4]: inactive; Activity [5]: inactive
OCCC1CCNCC1 | – | – | – | – | – | – | – | – | – | – | – | – | inactive | inactive | inactive | inactive | inactive | inactive | inactive | inactive | Activity (Aspergillus niger): inactive; Activity (Aspergillus nidulans): inactive; Activity (Aspergillus terreus): inactive; Activity [3]: inactive; Activity (Exophiala spinifera): inactive; Activity [4]: inactive; Activity [5]: inactive
CCC(C)n1ncn(-c2ccc(N3CCN(c4ccc(OCC5COC(Cn6cncn6)(c6ccc(Cl)cc6Cl)O5)cc4)CC3)cc2)c1=O (configuration not stated) [ITRACONAZOLE] | 0.125 µg/mL (≈ 0.177 µM) | 0.125 µg/mL (≈ 0.177 µM) | 0.25 µg/mL (≈ 0.354 µM) | 0.06 µg/mL (≈ 0.085 µM) | 0.5 µg/mL (≈ 0.709 µM) | 0.25 µg/mL (≈ 0.354 µM) | 0.25 µg/mL (≈ 0.354 µM) | 0.125 µg/mL (≈ 0.177 µM) | 0.125 µg/mL (≈ 0.177 µM) | 0.125 µg/mL (≈ 0.177 µM) | 0.06 µg/mL (≈ 0.085 µM) | 0.06 µg/mL (≈ 0.085 µM) | – | – | – | – | – | – | – | – | MIC [3]: 0.06 µg/mL (≈ 0.085 µM); MIC [4]: 0.125 µg/mL (≈ 0.177 µM)
O=C(CCl)N(c1ccccc1)c1ccccc1 | – | – | – | – | – | – | – | – | – | – | – | – | inactive | inactive | inactive | inactive | inactive | inactive | inactive | inactive | Activity (Aspergillus niger): inactive; Activity (Aspergillus nidulans): inactive; Activity (Aspergillus terreus): inactive; Activity [3]: inactive; Activity (Exophiala spinifera): inactive; Activity [4]: inactive; Activity [5]: inactive
O=C(CCl)N1c2ccccc2Sc2ccccc21 | 32 µg/mL (≈ 116 µM) | 32 µg/mL (≈ 116 µM) | > 512 µg/mL | 32 µg/mL (≈ 116 µM) | 32 µg/mL (≈ 116 µM) | 8 µg/mL (≈ 29 µM) | 16 µg/mL (≈ 58 µM) | 32 µg/mL (≈ 116 µM) | 2 µg/mL (≈ 7.25 µM) | 16 µg/mL (≈ 58 µM) | 16 µg/mL (≈ 58 µM) | 16 µg/mL (≈ 58 µM) | – | – | – | – | – | – | – | – | MIC [3]: 4 µg/mL (≈ 14.5 µM); MIC [4]: 16 µg/mL (≈ 58 µM)
OC(Cn1cncn1)(Cn1cncn1)c1ccc(F)cc1F [FLUCONAZOLE] | 2 µg/mL (≈ 6.53 µM) | 1 µg/mL (≈ 3.27 µM) | 1 µg/mL (≈ 3.27 µM) | 64 µg/mL (≈ 209 µM) | 4 µg/mL (≈ 13.1 µM) | 8 µg/mL (≈ 26.1 µM) | 16 µg/mL (≈ 52.2 µM) | 16 µg/mL (≈ 52.2 µM) | 16 µg/mL (≈ 52.2 µM) | 16 µg/mL (≈ 52.2 µM) | 16 µg/mL (≈ 52.2 µM) | 16 µg/mL (≈ 52.2 µM) | – | – | – | – | – | – | – | – | –
CC(CN1c2ccccc2Sc2ccccc21)N(C)C (configuration not stated) [PROMETHAZINE] | > 512 µg/mL | 512 µg/mL (≈ 1800 µM) | > 512 µg/mL | 256 µg/mL (≈ 900 µM) | 512 µg/mL (≈ 1800 µM) | 256 µg/mL (≈ 900 µM) | 256 µg/mL (≈ 900 µM) | 256 µg/mL (≈ 900 µM) | 256 µg/mL (≈ 900 µM) | 256 µg/mL (≈ 900 µM) | 256 µg/mL (≈ 900 µM) | 256 µg/mL (≈ 900 µM) | – | – | – | – | – | – | – | – | MIC [3]: 512 µg/mL (≈ 1800 µM); MIC [4]: 256 µg/mL (≈ 900 µM)

Reference: ChEMBL document CHEMBL1649364, “Synthesis and antifungal activity of some substituted phenothiazines and related compounds” (2011)
